Measurements published in patent US5622962A, “5α-reductase inhibitors” (priority 1995, dated 1997).

Key:
[1] = target: T1, Type I 5α-Reductase from Human Scalp (Homo sapiens, UniProt P18405); experiment: Human Type I 5α-reductase assay (conversion of [3H]-testosterone to 5α-reduced metabolites); assay type: biochemical; settings: 50 nM [3H]-testosterone, pH 7.5, 25°, 180 min, compared to control reaction mixtures; for inhibition at 0.3 µM: pH 7.5, 0.3 μM, read-out: percent inhibition of Type I AR; for percent inhibition of Type I AR: 0.3 μM
T1 construct: Scalp punch biopsies from graft recipient sites were obtained from human hair transplant procedures; from tissue; host or cells: human scalp punch biopsies (hair transplant graft recipient sites), homogenate, 100,000×g pellet
T1 sequence (P18405 1-259): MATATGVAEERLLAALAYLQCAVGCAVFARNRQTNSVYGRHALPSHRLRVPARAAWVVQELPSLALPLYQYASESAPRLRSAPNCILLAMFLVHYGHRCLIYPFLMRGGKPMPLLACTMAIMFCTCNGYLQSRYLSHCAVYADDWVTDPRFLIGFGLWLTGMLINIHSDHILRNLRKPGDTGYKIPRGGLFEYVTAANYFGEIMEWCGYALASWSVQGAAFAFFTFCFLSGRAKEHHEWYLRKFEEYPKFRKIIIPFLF

[2] = target: T2, Type II 5α-Reductase from Human Prostate (Homo sapiens, UniProt P31213); experiment: Human Type II 5α-reductase assay (conversion of [3H]-testosterone to 5α-reduced metabolites); assay type: biochemical; settings: sodium acetate pH 5.5, 25°, 30 min, compared to control reaction mixtures; for percent inhibition of Type II AR: 0.3 μM; for inhibition at 0.3 µM: pH 5.5, 0.3 μM, read-out: percent inhibition of Type II AR
T2 construct: The same procedure as above was used for preparations using tissue from prostate surgery; from tissue; host or cells: human prostate tissue from surgery, homogenate, 100,000×g pellet
T2 sequence (P31213 1-254): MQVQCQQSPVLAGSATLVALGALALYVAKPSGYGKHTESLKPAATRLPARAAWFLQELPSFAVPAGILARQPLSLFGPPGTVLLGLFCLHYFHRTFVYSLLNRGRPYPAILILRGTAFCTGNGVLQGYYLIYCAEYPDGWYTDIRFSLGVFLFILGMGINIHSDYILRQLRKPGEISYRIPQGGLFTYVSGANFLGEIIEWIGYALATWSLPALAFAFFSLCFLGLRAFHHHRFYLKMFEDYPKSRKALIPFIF

| Compound | inhibition at 0.3 µM [1] [%] | percent inhibition of Type II AR [2] [%] | inhibition at 0.3 µM [2] [%] | percent inhibition of Type I AR [1] [%] |
| --- | --- | --- | --- | --- |
| CN1C(=O)CC[C@]2(C)c3ccc(SCc4cc5ccccc5cn4)cc3CC[C@@H]12 [Example 191, (+)-(4aR)-(10bR)-8-(3-isoquinolinylmethylthio)-4,10b-dimethyl-1,2,3,4,4a,5,6,10b-octahydrobenzo[f]quinoline-3-one] | 65 | 28 | 19 |  |
| CN1C(=O)CC[C@]2(C)c3ccc(CSc4ccccc4)cc3CC[C@@H]12 [Example 137, (4aR)-(10bR)-8-phenylthiomethyl-4,10b-dimethyl-1,2,3,4,4a,5,6,10b-octahydrobenzo[f]quinolin-3-one] | 90 |  | 37 |  |
| Cc1ccc(C)c2sc(Sc3ccc4c(c3)CC[C@H]3N(C)C(=O)CC[C@]43C)nc12 [Example 185, (+)-(4aR)-(10bR)-4-methyl-8-(4,7-dimethyl-2-benzothiazolylthio)-10b-methyl-1,2,3,4,4a,5,6,10b-octahydrobenzo[f]-quinolin-3-one] | 88 |  | 90 |  |
| COc1ccccc1Sc1ccc2c(c1)CC[C@H]1NC(=O)CC[C@]21C [Example 12, (+)-(4aR)-(10bR)-8-(2-methoxyphenylthio)-10b-methyl-1,2,3,4,4a,5,6,10b-octahydrobenzo[f]quinolin-3-one] | 16 |  | 22 |  |
| CN1C(=O)CC[C@]2(C)c3ccc(Sc4cccc(Cl)c4)cc3CC[C@@H]12 [Example 100, (+)-(4aR)-(10bR)-4,10b-dimethyl-8-(3-chlorophenylthio)-1,2,3,4,-4a,5,6,10b-octahydrobenzo[f]quinolin-3-one] | 96 | 34 | 51 |  |
| Cc1cccc2sc(Sc3ccc4c(c3)CC[C@H]3N(C)C(=O)CC[C@]43C)nc12 [Example 159, (+)-(4aR)-(10bR)-4-methyl-8-(4-methyl-2-benzothiazolylthio)-10b-methyl-I, 2,3,4,4a,5,6,10b-octahydrobenzo[f]quinolin-3-one] |  | 83 | 87 | 87 |
| CN1C(=O)CC[C@]2(C)c3ccc(CCc4ccccc4)cc3CC[C@@H]12 [Example 280, (4aR)-(10bR)-4,10b-dimethyl-8-(2-phenylethyl)-1,2,3,4,4a,5,6,10b-octahydrobenzo[f]quinolin-3-one] | 97 |  | 33 | 100 |
| CN1C(=O)CC[C@]2(C)c3ccc(-c4ccc(C(N)=O)cc4)cc3CC[C@@H]12 [Example 213, (+)-(4aR)-(10bR)-4-methyl-8-(4-carboxamidophenyl)-10b-methyl-1,2,3,4,4a,5,6,10b-octahydrobenzo[f]quinolin-3-one] | 64 |  | 28 |  |
| CN1C(=O)CC[C@]2(C)c3ccc(Sc4ccccc4F)cc3CC[C@@H]12 [Example 108, (+)-(4aR)-(10bR)-4,10b-dimethyl-8-(2-fluorophenylthio)-1,2,3,4,-4a,5,6,10b-octahydrobenzo[f]quinolin-3-one] | 100 |  | 29 |  |
| CN1C(=O)CC[C@]2(C)c3ccc(-c4nc5ccccc5s4)cc3CC[C@@H]12 [Example 252, (+)-(4aR)-(10bR)-4-methyl-8-(2-benzothiazolyl)-10b-methyl-1,2,3,4,4a,5,6,10b-octahydrobenzo[f]quinolin-3-one] | 89 |  | 54 |  |
| CSc1cccc(-c2ccc3c(c2)CC[C@H]2N(C)C(=O)CC[C@]32C)c1 [Example 212, (+)-(4aR)-(10bR)-4-methyl-8-(3-methylthiophenyl)-10b-methyl-1,2,3,4,4a,5,6,10b-octahydrobenzo[f]quinolin-3-one] | 73 |  | 31 |  |
| CN1C(=O)CC[C@]2(C)c3ccc(C(=O)c4ccccc4Cl)cc3CC[C@@H]12 [Example 288, (4aR)-(10bR)-8-(2-chlorobenzoyl)-4,10b-dimethyl-1,2,3,4,4a,5,6,10b-octahydrobenzo[f]quinolin-3-one] | 19 |  | 12 |  |
| (+)-(4aR)-(10bR)-8-(3-isoquinolinyl)-10b-methyl-3,4,4a,5,6,10b-hexahydrobenzo[f]quinolin-3-one [Example 142] |  | 40 |  | 22 |
| CN1C(=O)CC[C@]2(C)c3ccc(-c4ccc5c(c4)CCC5=O)cc3CC[C@@H]12 [Example 207, (+)-(4aR)-(10bR)-4-methyl-8-(1-oxo-5-indanyl)-10b-methyl-1,2,3,4,4a,5,6,10b-octahydrobenzo[f]quinolin-3-one] | 45 |  | 16 |  |
| CN1C(=O)CC[C@]2(C)c3ccc(-c4ccc5c6c(cccc46)CC5)cc3CC[C@@H]12 [Example 66, (+)-(4aR)-(10bR)-4-methyl-8-(5-acenaphthenyl)-10b-methyl-1,2,3,4,4a,5,6,10b-octahydrobenzo[f]quinolin-3-one] | 67 |  | 33 |  |
| CN1C(=O)CC[C@]2(C)c3ccc(CCCc4ccccc4)cc3CC[C@@H]12 [Example 275, (+)-(4aR)-(10bR)-4-methyl-8-(3-phenylpropyl)-10b-methyl-1,2,3,4,4a,5,6,10b-octahydrobenzo[f]quinolin-3-one] | 75 |  | 44 |  |
| CN1C(=O)CC[C@]2(C)c3ccc(-c4ccc5oc(=O)ccc5c4)cc3CC[C@@H]12 [Example 248, (+)-(4aR)-(10bR)-4-methyl-8-(2-oxo-1-benzopyran-6-yl)-10b-methyl-1,2,3,4,4a,5,6,10b-octahydrobenzo[f]quinolin-3-one] | 54 |  | 22 |  |
| C[C@]12CCC(=O)N[C@@H]1CCc1cc(Sc3ccccn3)ccc12 [Example 21, (4aR)-(10bR)-8-(2-pyridinylthio)-10b-methyl-1,2,3,4,4a,5,6,10b-octahydrobenzo[f]quinolin-3-one] | 27 |  | 42 |  |
| CN1C(=O)CC[C@]2(C)c3ccc(-c4ccccc4[N+](=O)[O-])cc3CC[C@@H]12 [Example 124, (+)-(4aR)-(10bR)-4-methyl-8-(2-nitrophenyl)-10b-methyl-1,2,3,4,4a,5,6,10b-octahydrobenzo[f]quinolin-3-one] | 23 |  | 32 |  |
| CN1C(=O)CC[C@]2(C)c3ccc(Sc4nc5c(C(C)(C)C)ccc(C(C)(C)C)c5s4)cc3CC[C@@H]12 [Example 189, (+)-(4aR)-(10bR)-4-methyl-8-[4,7-di(t-butyl)-2-benzothiazolylthio]-10b-methyl-1,2,3,4,4a,5,6,10b-octahydrobenzo[f]-quinolin-3-one] | 84 |  | 19 |  |
| CN1C(=O)CC[C@]2(C)c3ccc(-c4cccc5cnccc45)cc3CC[C@@H]12 [Example 241, (+)-(4aR)-(10bR)-4-methyl-8-(5-isoquinolinyl)-10b-methyl-1,2,3,4,4a,5,6,10b-octahydrobenzo[f]quinolin-3-one] | 65 |  | 33 |  |
| CCN(CC)C(=O)c1ccccc1-c1ccc2c(c1)CC[C@H]1N(C)C(=O)CC[C@]21C [Example 74] | 16 |  | 26 |  |
| CN1C(=O)CC[C@]2(C)c3ccc(-c4ncccn4)cc3CC[C@@H]12 [Example 254, (+)-(4aR)-(10bR)-4-methyl-8-(2-pyrimidinyl)-10b-methyl-1,2,3,4,4a,5,6,10b-octahydrobenzo[f]quinolin-3-one] | 37 |  | 28 |  |
| CN1C(=O)CC[C@]2(C)c3ccc(C(=O)c4ccccc4)cc3CC[C@@H]12 [Example 286, (4aR)-(10bR)-8-benzoyl-4,10b-dimethyl-1,2,3,4,4a,5,6,10b-octahydrobenzo[f]quinolin-3-one] | 53 |  | 38 |  |
| CN1C(=O)CC[C@]2(C)c3ccc(-c4cnccn4)cc3CC[C@@H]12 [Example 253, (+)-(4aR)-(10bR)-4-methyl-8-(2-pyrazinyl)-10b-methyl-1,2,3,4,4a,5,6,10b-octahydrobenzo[f]quinolin-3-one] | 5 |  | 32 |  |
| CN1C(=O)CC[C@]2(C)c3ccc(Sc4nc5cc([N+](=O)[O-])ccc5s4)cc3CC[C@@H]12 [Example 160, (+)-(4aR)-(10bR)-4-methyl-8-(5-nitro-2-benzothiazolylthio)-10b-methyl-1,2,3,4,4a,5,6,10b-octahydrobenzo[f]quinolin-3-one] | 61 |  | 38 |  |
| CN1C(=O)CC[C@]2(C)c3ccc(-c4cccc5cccnc45)cc3CC[C@@H]12 [Example 239, (+)-(4aR)-(10bR)-4-methyl-8-(8-quinolinyl)-10b-methyl-1,2,3,4,4a,5,6,10b-octahydrobenzo[f]quinolin-3-one] | 42 |  | 27 |  |
